Laboratory results taken from the supplement of paper PMC10307832.

Key:
Test in all cases: relative viability (nuclei count vs DMSO), 5 days (fraction); higher = more cells survive
MLN4924 + OSI-027 = compound: NS(=O)(=O)OC[C@@H]1C[C@@H](n2ccc3c(N[C@H]4CCc5ccccc54)ncnc32)C[C@@H]1O [MLN4924] + COc1cccc2cc(-c3nc([C@H]4CC[C@H](C(=O)O)CC4)n4ncnc(N)c34)[nH]c12 [OSI-027] (partner 0.5 µM)
In short: (§1)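 Medians of duplicate plates are given as relative viability. That measure is the nuclei count in treated wells divided by the count in vehicle wells. Counts were taken on 4× images of lung cancer cell lines in 1536-well plates, 5 days after pin-tool dosing the day after seeding with one drug alone or a fixed anchor-drug dose plus five library-drug doses (not always all listed) in √10 steps.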

Carboplatin + Linsitinib = compound: C1CC(C1)(C(=O)O)C(=O)O.[NH2-].[NH2-].[Pt+2] [Carboplatin] + C[C@]1(O)C[C@@H](c2nc(-c3ccc4ccc(-c5ccccc5)nc4c3)c3c(N)nccn32)C1 [Linsitinib] (partner 1 µM)
In short: as §1

GSK126 + Pemetrexed = compound: CC[C@H](C)N1C=C(C2=C(C=C(C=C21)C3=CN=C(C=C3)N4CCNCC4)C(=O)NCC5=C(C=C(NC5=O)C)C)C [GSK126] + Nc1nc2[nH]cc(CCc3ccc(C(=O)N[C@@H](CCC(=O)O)C(=O)O)cc3)c2c(=O)[nH]1 [Pemetrexed] (partner 0.2 µM)
In short: as §1

Carboplatin + Bortezomib = compound: C1CC(C1)(C(=O)O)C(=O)O.[NH2-].[NH2-].[Pt+2] [Carboplatin] + CC(C)C[C@H](NC(=O)[C@H](Cc1ccccc1)NC(=O)c1cnccn1)B(O)O [Bortezomib] (partner 0.002 µM)
In short: as §1

Cell Line | relative viability (MLN4924 + OSI-027; first compound 0.04 µM) | relative viability (MLN4924 + OSI-027; first compound 0.1265 µM) | relative viability (MLN4924 + OSI-027; first compound 0.4 µM) | relative viability (MLN4924 + OSI-027; first compound 1.265 µM) | relative viability (MLN4924 + OSI-027; first compound 4 µM) | relative viability (Carboplatin + Linsitinib; first compound 0.08 µM) | relative viability (Carboplatin + Linsitinib; first compound 0.8 µM) | relative viability (Carboplatin + Linsitinib; first compound 2.53 µM) | relative viability (Carboplatin + Linsitinib; first compound 8 µM) | relative viability (GSK126 + Pemetrexed; first compound 0.08 µM) | relative viability (GSK126 + Pemetrexed; first compound 0.253 µM) | relative viability (GSK126 + Pemetrexed; first compound 0.8 µM) | relative viability (GSK126 + Pemetrexed; first compound 2.53 µM) | relative viability (GSK126 + Pemetrexed; first compound 8 µM) | relative viability (Carboplatin + Bortezomib; first compound 0.08 µM) | relative viability (Carboplatin + Bortezomib; first compound 0.253 µM) | relative viability (Carboplatin + Bortezomib; first compound 0.8 µM) | relative viability (Carboplatin + Bortezomib; first compound 2.53 µM) | relative viability (Carboplatin + Bortezomib; first compound 8 µM) | relative viability (Carboplatin + Linsitinib; first compound 0.253 µM)
LCLC-97TM1 | 0.601 | 0.247 | 0.239 | 0.131 | 0.116 | 0.177 | 0.17 | 0.195 | 0.192 | 0.19 | 0.193 | 0.171 | 0.179 | 0.194 | 0.723 | 0.62 | 1.25 | 0.844 | 0.375 | –
LCLC-103H | 0.467 | 0.491 | 0.539 | 0.178 | 0.156 | 1.15 | 1.05 | 1.21 | 1.04 | 0.397 | 0.499 | 0.431 | 0.469 | 0.538 | 1.13 | 1.33 | 1.06 | 1.24 | 1 | 1.1
LOU-NH91 | 0.754 | 0.857 | 0.609 | 0.411 | 0.385 | 1.11 | 0.924 | 0.946 | 0.891 | 0.399 | 0.35 | 0.376 | 0.362 | 0.423 | 0.581 | 0.52 | 0.54 | 0.472 | 0.495 | 0.9
LU99A | 0.293 | 0.315 | 0.247 | 0.196 | 0.222 | 0.621 | 0.508 | 0.464 | 0.417 | 0.181 | 0.165 | 0.185 | 0.179 | 0.155 | 1.01 | 1.23 | 1.04 | 0.968 | 0.757 | 0.583
LXF-289 | 0.833 | 0.713 | 0.569 | 0.165 | 0.13 | 0.992 | 0.912 | 0.939 | 0.926 | 0.894 | 0.945 | 0.933 | 0.908 | 0.884 | 1.03 | 0.986 | 0.98 | 1.01 | 0.919 | 1.02
NCI-H23 | 0.514 | 0.497 | 0.244 | 0.136 | 0.177 | 0.536 | 0.542 | 0.563 | 0.492 | 0.773 | 0.735 | 0.687 | 0.706 | 0.631 | 1.1 | 1.11 | 1.08 | 0.861 | 0.784 | 0.716
NCI-H322M | 0.622 | 0.588 | 0.339 | 0.272 | 0.329 | 0.915 | 0.785 | 0.812 | 0.799 | 0.543 | 0.621 | 0.615 | 0.648 | 0.641 | 1.26 | 1.23 | 1.2 | 1.22 | 1.14 | 0.956
NCI-H441 | 0.596 | 0.613 | 0.258 | 0.139 | 0.193 | 0.608 | 0.662 | 0.544 | 0.573 | 0.289 | 0.281 | 0.272 | 0.248 | 0.267 | 0.239 | 0.777 | 0.618 | 0.459 | 0.364 | 0.506
NCI-H460 | 0.739 | 0.781 | 0.893 | 0.0922 | 0.0324 | 0.907 | 0.739 | 0.445 | 0.184 | 0.0714 | 0.0516 | 0.0631 | 0.0635 | 0.0781 | 1.22 | 1.06 | 0.895 | 0.812 | 0.174 | 0.803
NCI-H520 | 0.294 | 0.295 | 0.363 | 0.202 | 0.191 | 0.997 | 1.02 | 0.943 | 0.784 | 0.781 | 0.792 | 0.743 | 0.705 | 0.733 | 0.611 | 0.609 | 0.767 | 0.599 | 0.523 | 1.09
NCI-H596 | 0.669 | 0.87 | – | 0.765 | 0.596 | 1.15 | 0.904 | 0.809 | 0.771 | 0.496 | 0.464 | 0.441 | 0.45 | 0.472 | 1.21 | 1.27 | 0.989 | 0.886 | 0.73 | 1.09
NCI-H647 | 0.598 | 0.472 | 0.475 | 0.0477 | 0.0384 | 1.41 | 1.11 | 0.932 | 0.503 | 0.236 | 0.197 | 0.188 | 0.163 | 0.19 | 1.03 | 1.24 | 0.952 | 1.07 | 0.686 | 1.24
NCI-H650 | 0.344 | 0.415 | 0.235 | 0.162 | 0.187 | 1.15 | 0.982 | 0.848 | 0.503 | 1.09 | 0.825 | 0.935 | 0.903 | 1.24 | 0.966 | 0.852 | 0.868 | 0.764 | 0.388 | 0.859
NCI-H661 | 0.751 | 0.876 | 0.689 | 0.319 | 0.349 | 0.555 | 0.529 | 0.44 | 0.541 | 0.982 | 0.897 | 0.991 | 0.914 | 0.967 | 0.915 | 0.856 | 0.716 | 0.613 | 0.763 | 0.705
NCI-H838 | 0.364 | 0.241 | 0.224 | 0.154 | 0.166 | 1.03 | 0.961 | 0.958 | 1 | 0.245 | 0.231 | 0.229 | 0.239 | 0.24 | 1.06 | 0.858 | 0.869 | 0.835 | 0.82 | 1.09
NCI-H1355 | 0.456 | 0.388 | 0.277 | 0.221 | 0.231 | 0.971 | 0.838 | 0.869 | 0.727 | 1.15 | 1.12 | 0.996 | 1.03 | 1.06 | 1.35 | 1.33 | 1.18 | 1.23 | 1.04 | 0.805
NCI-H1437 | 0.845 | 0.914 | 0.828 | 0.305 | 0.174 | 1.06 | 0.95 | 0.859 | 0.876 | 0.298 | 0.325 | 0.306 | 0.305 | 0.353 | 0.526 | 0.486 | 0.598 | 0.453 | 0.425 | 1.02
NCI-H1563 | 0.981 | 1.04 | 0.74 | 0.526 | 0.524 | 1.32 | 1.22 | 1.26 | 1.04 | 0.848 | 0.808 | 0.772 | 0.579 | 0.754 | 1.02 | 0.886 | 0.937 | 0.876 | 0.77 | 1.13
NCI-H1651 | 0.694 | 0.828 | 0.866 | 0.398 | 0.161 | 0.918 | 0.82 | 0.9 | 0.509 | 0.651 | 0.594 | 0.566 | 0.67 | 0.636 | 0.92 | 0.967 | 0.927 | 0.872 | 0.761 | 1.06
NCI-H1666 | 0.862 | 0.892 | 0.711 | 0.351 | 0.325 | 0.823 | 0.747 | 0.794 | 0.458 | 0.872 | 0.936 | 0.766 | 0.796 | 0.807 | 0.842 | 0.776 | 0.789 | 0.774 | 0.724 | 0.879
NCI-H1734 | 0.498 | 0.832 | 0.304 | 0.124 | 0.142 | 0.823 | 0.909 | 0.876 | 0.851 | 0.406 | 0.411 | 0.463 | 0.448 | 0.461 | 0.97 | 0.885 | 0.921 | 0.888 | 0.849 | 0.904
NCI-H1755 | 0.681 | 0.518 | 0.4 | 0.207 | 0.208 | 1.12 | 1.03 | 1.02 | 0.952 | 0.401 | 0.483 | 0.402 | 0.403 | 0.36 | 0.995 | 1.02 | 0.992 | 1.01 | 0.887 | 0.947
NCI-H1792 | 0.663 | 0.765 | 0.839 | 0.593 | 0.54 | 0.61 | 0.528 | 0.393 | 0.503 | 0.89 | 0.727 | 0.806 | 0.698 | 0.818 | 1.06 | 0.933 | 0.885 | 0.844 | 0.862 | 0.518
NCI-H1915 | 0.567 | 0.544 | 0.452 | 0.213 | 0.205 | 1.07 | 1.04 | 1.01 | 0.723 | 0.573 | 0.484 | 0.504 | 0.477 | 0.484 | 0.984 | 1.01 | 0.954 | 0.845 | 0.487 | 1.11
NCI-H1975 | 0.704 | 0.934 | 1 | 0.618 | 0.261 | 0.894 | 0.999 | 1.02 | 0.903 | 0.276 | 0.306 | 0.304 | 0.305 | 0.277 | 0.345 | 0.462 | 0.462 | 0.419 | 0.307 | 0.986
NCI-H1993 | 0.549 | 0.523 | 0.532 | 0.488 | 0.52 | 0.773 | 0.779 | 0.817 | 0.701 | 0.583 | 0.555 | 0.628 | 0.586 | 0.687 | 1.14 | 1.16 | 0.915 | 0.928 | 0.908 | 0.798
